# Data: US10160756B2 (priority 2014, dated 2018)
# Where two headings read alike, the source gives them in different places.
# Columns and labels:
# MARV VP40 (mVP40) VLPs = assay: organism not typed; format: cell-based, Marburg virus (MARV)
# VSV-WT = format: cell-based, vesicular stomatitis virus (Indiana strain)
# LFV Z VLPs = format: cell-based, Lassa fever virus (LFV)
# EBOV VP40 (eVP40) VLPs = format: cell-based, Ebola virus (EBOV)
# VSV-M40 = format: cell-based, vesicular stomatitis virus
# mVP40-Nedd4 interaction = mVP40-Nedd4 interaction (Homo sapiens, UniProt P46934); format: cell-based
# mVP40-Nedd4 interaction, sequence (P46934 whole entry): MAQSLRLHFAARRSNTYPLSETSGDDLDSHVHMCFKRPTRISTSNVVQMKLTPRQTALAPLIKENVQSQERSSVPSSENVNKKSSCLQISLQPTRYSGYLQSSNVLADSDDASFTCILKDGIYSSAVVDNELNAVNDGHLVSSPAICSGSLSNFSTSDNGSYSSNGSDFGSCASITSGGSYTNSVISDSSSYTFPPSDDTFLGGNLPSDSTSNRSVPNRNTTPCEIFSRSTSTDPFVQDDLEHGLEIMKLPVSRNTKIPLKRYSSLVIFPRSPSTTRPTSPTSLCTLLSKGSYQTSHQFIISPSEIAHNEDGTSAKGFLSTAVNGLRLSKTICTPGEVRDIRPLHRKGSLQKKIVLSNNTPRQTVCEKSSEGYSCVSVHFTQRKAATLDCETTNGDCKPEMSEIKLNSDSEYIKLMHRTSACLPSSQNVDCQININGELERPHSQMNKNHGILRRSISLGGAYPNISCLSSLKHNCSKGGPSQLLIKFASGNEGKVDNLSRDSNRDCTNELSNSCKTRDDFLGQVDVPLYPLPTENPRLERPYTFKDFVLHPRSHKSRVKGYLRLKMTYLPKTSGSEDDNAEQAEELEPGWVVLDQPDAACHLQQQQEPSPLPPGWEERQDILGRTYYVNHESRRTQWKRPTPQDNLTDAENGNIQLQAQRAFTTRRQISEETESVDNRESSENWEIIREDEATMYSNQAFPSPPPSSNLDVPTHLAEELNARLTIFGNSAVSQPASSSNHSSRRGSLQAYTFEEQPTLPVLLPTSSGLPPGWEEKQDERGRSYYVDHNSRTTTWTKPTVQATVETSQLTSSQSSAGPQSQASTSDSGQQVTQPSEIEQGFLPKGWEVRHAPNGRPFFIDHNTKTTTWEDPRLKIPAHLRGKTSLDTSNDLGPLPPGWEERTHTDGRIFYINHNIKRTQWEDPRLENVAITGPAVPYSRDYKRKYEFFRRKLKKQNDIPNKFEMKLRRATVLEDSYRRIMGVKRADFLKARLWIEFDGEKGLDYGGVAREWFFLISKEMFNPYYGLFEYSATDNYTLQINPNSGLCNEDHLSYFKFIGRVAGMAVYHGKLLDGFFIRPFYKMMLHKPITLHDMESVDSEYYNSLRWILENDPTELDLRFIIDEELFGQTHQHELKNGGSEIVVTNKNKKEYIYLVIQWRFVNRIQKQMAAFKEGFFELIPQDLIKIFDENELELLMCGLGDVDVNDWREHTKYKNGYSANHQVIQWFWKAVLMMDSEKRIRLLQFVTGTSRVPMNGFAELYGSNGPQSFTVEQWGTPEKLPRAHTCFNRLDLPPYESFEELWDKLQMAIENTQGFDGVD
# E-BiMC (Ebola VP40) = format: cell-based
compound,measurement,setting,value
"Cc1n[nH]c(C)c1NC(=O)CN1CCN(c2nc3ccccc3s2)CC1 [Compound 2g, 2-(4-(benzo[d]thiazol-2-yl)piperazin-1-yl)-N-(3,5-dimethyl-1H-pyrazol-4-yl)acetamide]","activity in SAR studies, MVP40 VLP budding (words, FIG. 10)",MARV VP40 (mVP40) VLPs,inactive
"Cc1nc2ccccc2nc1SCC(=O)NC(=O)Nc1ccccc1 [Compound 5, 2-((3-methylquinoxalin-2-yl)thio)-N-(phenylcarbamoyl)acetamide]",inhibition of egress of VSV-WT,VSV-WT; 0.5 μM,4 fold
same,inhibition of egress of LFV Z VLPs,LFV Z VLPs; 0.1 μM,approximately 3 fold
same,inhibition of egress of LFV Z VLPs,LFV Z VLPs; 0.5 μM,~5 fold
same,inhibition of egress of eVP40 VLPs,EBOV VP40 (eVP40) VLPs; 0.1 μM,< 2 fold
same,inhibition of egress of eVP40 VLPs,EBOV VP40 (eVP40) VLPs; 0.5 μM,3.5 fold
same,inhibition of egress of eVP40 VLPs,EBOV VP40 (eVP40) VLPs; 1.0 μM,7 fold
same,inhibition of egress of mVP40 VLPs,MARV VP40 (mVP40) VLPs; 0.1 μM,25 fold
same,inhibition of egress of mVP40 VLPs,MARV VP40 (mVP40) VLPs; 0.5 μM,100 fold
same,inhibition of egress of mVP40 VLPs,MARV VP40 (mVP40) VLPs; 1.0 μM,100 fold
same,IC50,"MARV VP40 (mVP40) VLPs; read-out: IC50, anti-budding activity on MVP40",< 100 nM
same,inhibition of egress of VSV-M40,VSV-M40; 0.1 μM,2 fold
same,inhibition of egress of VSV-M40,VSV-M40; 0.5 μM,6 fold
"O=C(CN1CCCC(c2nc3ccccc3s2)C1)NC(=O)NCC(F)(F)F (stereo not shown) [Compound 1, 2-(3-(benzo[d]thiazol-2-yl)piperidin-1-yl)-N-((2,2,2-trifluoroethyl)carbamoyl) acetamide]",reduction of budding of VSV-WT,VSV-WT; 10 μM,approximately 5 fold
same,inhibition of egress of mVP40 VLPs,MARV VP40 (mVP40) VLPs; 20 μM,~5 fold
"CCNC(=O)NC(=O)CSc1nc2ccccc2nc1C [Compound 3f, N-(ethylcarbamoyl)-2-((3-methylquinoxalin-2-yl)thio)acetamide]",potency relative to 3 in the MVP40 budding assay,MARV VP40 (mVP40) VLPs,as or more potent than 3
"Cc1nn(-c2ccccc2)c(C)c1NC(=O)CN1CCCC(c2nc3ccccc3s2)C1 (stereo not shown) [Compound 4, 2-(3-(benzo[d]thiazol-2-yl)piperidin-1-yl)-N-(3,5-dimethyl-1-phenyl-1H-pyrazol-4-yl)acetamide]",PPxY-dependent budding of VSV reduced,VSV-WT; 0.1 μM,approximately 50%
same,PPxY-dependent budding of VSV reduced,VSV-WT; 0.5 μM,~100%
same,inhibition of egress of VSV-WT,VSV-WT; 0.5 μM,approximately 20 fold
same,inhibition of egress of live VSV-WT,VSV-WT; 0.5 μM,more than 1 log
same,titer of VSV-WT,VSV-WT; 0.5 μM,1.8×10^6 pfu/ml
same,inhibition of egress of LFV Z VLPs,LFV Z VLPs; 0.5 μM,> 5 fold
same,inhibition of egress of eVP40 VLPs,EBOV VP40 (eVP40) VLPs; 0.5 μM,3 fold
same,inhibition of egress of eVP40 VLPs,EBOV VP40 (eVP40) VLPs; 1.0 μM,10 fold
same,"activity in SAR studies, MVP40 VLP budding (words, FIG. 10)",MARV VP40 (mVP40) VLPs,sub-micromolar
same,budding of mVP40 VLPs reduced,MARV VP40 (mVP40) VLPs,> 90%
same,inhibition of egress of mVP40 VLPs,MARV VP40 (mVP40) VLPs; 0.5 μM,30 fold
same,inhibition of egress of mVP40 VLPs,MARV VP40 (mVP40) VLPs; 1.0 μM,100 fold
same,inhibition of egress of VSV-M40,VSV-M40; 0.1 μM,approximately 2 fold
same,inhibition of egress of VSV-M40,VSV-M40; 0.5 μM,3 fold
"Cc1nc2ccccc2nc1SCC(=O)NC(=O)NC1CC1 [Compound 3g, N-(cyclopropylcarbamoyl)-2-((3-methylquinoxalin-2-yl)thio)acetamide]",potency relative to 3 in the MVP40 budding assay,MARV VP40 (mVP40) VLPs,as or more potent than 3
"Cc1nc2ccccc2nc1SCC(=O)NC(=O)NCC(F)(F)F [Compound 3, 2-((3-methylquinoxalin-2-yl)thio)-N-((2,2,2-trifluoroethyl)carbamoyl) acetamide]",inhibition of egress of eVP40 VLPs,EBOV VP40 (eVP40) VLPs; 1.0 μM,< 2 fold
same,inhibition of egress of eVP40 VLPs,EBOV VP40 (eVP40) VLPs; 10 μM,4.5 fold
same,inhibition of egress of eVP40 VLPs,EBOV VP40 (eVP40) VLPs; 20 μM,20 fold
same,"activity in SAR studies, MVP40 VLP budding (words, FIG. 10)",MARV VP40 (mVP40) VLPs,very effective
same,inhibition of egress of mVP40 VLPs,MARV VP40 (mVP40) VLPs; 1.0 μM,10 fold
same,inhibition of egress of mVP40 VLPs,MARV VP40 (mVP40) VLPs; 10 μM,100 fold
same,inhibition of egress of mVP40 VLPs,MARV VP40 (mVP40) VLPs; 20 μM,100 fold
"O=C(CN1CCCC(c2nc3ccccc3s2)C1)NCCOc1ccccc1 (stereo not shown) [Compound 2e, 2-(3-(benzo[d]thiazol-2-yl)piperidin-1-yl)-N-(2-phenoxyethyl)acetamide]",activity in the M VP40 budding assay,MARV VP40 (mVP40) VLPs; 10 μM,active
"Cc1nc2ccccc2nc1SCC(=O)NC(=O)NCc1cccs1 [Compound 3i, 2-((3-methylquinoxalin-2-yl)thio)-N-((thiophen-2-ylmethyl)carbamoyl)acetamide]",potency relative to 3 in the MVP40 budding assay,MARV VP40 (mVP40) VLPs,as or more potent than 3
"Cc1n[nH]c(C)c1NC(=O)CN1CCCC(c2nc3ccccc3s2)C1 (stereo not shown) [Compound 2, 2-(3-(benzo[d]thiazol-2-yl)piperidin-1-yl)-N-(3,5-dimethyl-1H-pyrazol-4-yl) acetamide]",inhibition of budding of live wild type VSV,VSV-WT,significantly inhibited
same,inhibition of egress of eVP40 VLPs,EBOV VP40 (eVP40) VLPs; 20 μM,2.5 fold
same,inhibition of egress of Ebola (E) VP40 VLPs,EBOV VP40 (eVP40) VLPs; 40 μM,nearly full inhibition
same,inhibition of egress of eVP40 VLPs,EBOV VP40 (eVP40) VLPs; 40 μM,40 fold
same,target engagement in M-BiMC assay,mVP40-Nedd4 interaction,showed target engagement
same,target engagement in E-BiMC assay,E-BiMC (Ebola VP40),showed target engagement
same,inhibition of egress of Marburg (M) VP40 VLPs,MARV VP40 (mVP40) VLPs; 20 μM,nearly full inhibition
same,inhibition of egress of mVP40 VLPs,MARV VP40 (mVP40) VLPs; 20 μM,33 fold
same,inhibition of egress of mVP40 VLPs,MARV VP40 (mVP40) VLPs; 40 μM,100 fold
